Where no end group is shown, it is not given here. [ ]: non-standard residue; d: D form. Aib = CC(C)(N)C(=O)O
System: db/db mice
Experiment: Blood glucose lowering in db/db mice (Example 7)
Format: in vivo
Details: db/db male mice, 30 nmol/kg subcutaneous single dose, blood glucose 0-10 hours, AUC, vs PBS control; FIG. 1
Protocol: db/db mice were housed in animal feeding rooms with strictly controlled environmental conditions. The temperature in the feeding room was maintained at 20-24° C. and the humidity was maintained at 40-70%. The temperature and humidity of the feeding room were monitored in real time by a temperature and humidity meter, and the temperature and humidity were recorded twice a day (once in the morning and once in the afternoon). The lighting in the animal feeding room was controlled by an electronic timing light-on system. The lights were turned on for 12 hours and turned off for 12 hours every day (on at 7:00 in the morning and off at 19:00 in the afternoon). During the experiment, the mice were individually housed in each cage, and toys were provided to the mice in each cage. During the experiment mice had free access to water. The db/db male mice (6 weeks old) were given one week to acclimate to the environmental conditions of the test facility. Baseline blood glucose and body weight were recorded for three days before the test (−3 day to −1 day). The mice were randomly grouped based on three-day blood glucose and body weight, with 6 mice in each group. The mice were injected subcutaneously with PBS (5 ml/kg, control group) or the peptide compounds 1, 2, 8, 16, 18, 19, 24, and 36 (30 nmol/kg) respectively at 10:00 am. Blood was collected at 0 hour before drug administration, and 1, 2, 4, 6, 8 and 10 hours after administration, and blood glucose was measured using a OneTouch glucose meter (Johnson & Johnson) and test strips. Blood glucose curves were plotted with time as the abscissa and the blood glucose value at different time point as the ordinate, the areas under the curve (AUC) were calculated, and the hypoglycemic effects and duration of time of the peptide compounds were compared.

**Q.** With “Y(aib)EGTFTSDYSIYLEKEAVRLFIEWLIAGGPSSGAPPPS-NH2 (Y[Aib]EGTFTSDYSIYLEKEAVRLFIEWLIAGGPSSGAPPPS-NH2; N-terminus assumed; SMILES CC[C@H](C)[C@H](NC(=O)[C@H](CC(C)C)NC(=O)[C@H](Cc1c[nH]c2ccccc12)NC(=O)[C@H](CCC(=O)O)NC(=O)[C@@H](NC(=O)[C@H](Cc1ccccc1)NC(=O)[C@H](CC(C)C)NC(=O)[C@H](CCCNC(=N)N)NC(=O)[C@@H](NC(=O)[C@H](C)NC(=O)[C@H](CCC(=O)O)NC(=O)[C@H](CCCCN)NC(=O)[C@H](CCC(=O)O)NC(=O)[C@H](CC(C)C)NC(=O)[C@H](Cc1ccc(O)cc1)NC(=O)[C@@H](NC(=O)[C@H](CO)NC(=O)[C@H](Cc1ccc(O)cc1)NC(=O)[C@H](CC(=O)O)NC(=O)[C@H](CO)NC(=O)[C@@H](NC(=O)[C@H](Cc1ccccc1)NC(=O)[C@@H](NC(=O)CNC(=O)[C@H](CCC(=O)O)NC(=O)C(C)(C)NC(=O)[C@@H](N)Cc1ccc(O)cc1)[C@@H](C)O)[C@@H](C)O)[C@@H](C)CC)C(C)C)[C@@H](C)CC)C(=O)N[C@@H](C)C(=O)NCC(=O)NCC(=O)N1CCC[C@H]1C(=O)N[C@@H](CO)C(=O)N[C@@H](CO)C(=O)NCC(=O)N[C@@H](C)C(=O)N1CCC[C@H]1C(=O)N1CCC[C@H]1C(=O)N1CCC[C@H]1C(=O)N[C@@H](CO)C(N)=O) [Compound 16]” as the substance, how does the blood glucose read?
**A.** Its blood glucose is “significantly reduce blood glucose”.

**Q.** With “Y(aib)EGTFTSDLSIQLEKEAVKLFIEWLLAGGPSSGAPPPS-NH2 (Y[Aib]EGTFTSDLSIQLEKEAVKLFIEWLLAGGPSSGAPPPS-NH2; N-terminus assumed; SMILES CC[C@H](C)[C@H](NC(=O)[C@H](CO)NC(=O)[C@H](CC(C)C)NC(=O)[C@H](CC(=O)O)NC(=O)[C@H](CO)NC(=O)[C@@H](NC(=O)[C@H](Cc1ccccc1)NC(=O)[C@@H](NC(=O)CNC(=O)[C@H](CCC(=O)O)NC(=O)C(C)(C)NC(=O)[C@@H](N)Cc1ccc(O)cc1)[C@@H](C)O)[C@@H](C)O)C(=O)N[C@@H](CCC(N)=O)C(=O)N[C@@H](CC(C)C)C(=O)N[C@@H](CCC(=O)O)C(=O)N[C@@H](CCCCN)C(=O)N[C@@H](CCC(=O)O)C(=O)N[C@@H](C)C(=O)N[C@H](C(=O)N[C@@H](CCCCN)C(=O)N[C@@H](CC(C)C)C(=O)N[C@@H](Cc1ccccc1)C(=O)N[C@H](C(=O)N[C@@H](CCC(=O)O)C(=O)N[C@@H](Cc1c[nH]c2ccccc12)C(=O)N[C@@H](CC(C)C)C(=O)N[C@@H](CC(C)C)C(=O)N[C@@H](C)C(=O)NCC(=O)NCC(=O)N1CCC[C@H]1C(=O)N[C@@H](CO)C(=O)N[C@@H](CO)C(=O)NCC(=O)N[C@@H](C)C(=O)N1CCC[C@H]1C(=O)N1CCC[C@H]1C(=O)N1CCC[C@H]1C(=O)N[C@@H](CO)C(N)=O)[C@@H](C)CC)C(C)C) [Compound 24]” as the substance, how does the blood glucose read?
**A.** Its blood glucose is “significantly reduce blood glucose”.

**Q.** “Y(aib)EGTFTSDLSIQLEKEAARLFIEWLLAGGPSSGAPPPS-NH2 (Y[Aib]EGTFTSDLSIQLEKEAARLFIEWLLAGGPSSGAPPPS-NH2; N-terminus assumed; SMILES CC[C@H](C)[C@H](NC(=O)[C@H](Cc1ccccc1)NC(=O)[C@H](CC(C)C)NC(=O)[C@H](CCCNC(=N)N)NC(=O)[C@H](C)NC(=O)[C@H](C)NC(=O)[C@H](CCC(=O)O)NC(=O)[C@H](CCCCN)NC(=O)[C@H](CCC(=O)O)NC(=O)[C@H](CC(C)C)NC(=O)[C@H](CCC(N)=O)NC(=O)[C@@H](NC(=O)[C@H](CO)NC(=O)[C@H](CC(C)C)NC(=O)[C@H](CC(=O)O)NC(=O)[C@H](CO)NC(=O)[C@@H](NC(=O)[C@H](Cc1ccccc1)NC(=O)[C@@H](NC(=O)CNC(=O)[C@H](CCC(=O)O)NC(=O)C(C)(C)NC(=O)[C@@H](N)Cc1ccc(O)cc1)[C@@H](C)O)[C@@H](C)O)[C@@H](C)CC)C(=O)N[C@@H](CCC(=O)O)C(=O)N[C@@H](Cc1c[nH]c2ccccc12)C(=O)N[C@@H](CC(C)C)C(=O)N[C@@H](CC(C)C)C(=O)N[C@@H](C)C(=O)NCC(=O)NCC(=O)N1CCC[C@H]1C(=O)N[C@@H](CO)C(=O)N[C@@H](CO)C(=O)NCC(=O)N[C@@H](C)C(=O)N1CCC[C@H]1C(=O)N1CCC[C@H]1C(=O)N1CCC[C@H]1C(=O)N[C@@H](CO)C(N)=O) [Compound 18]” was tested. Which blood glucose did it give?
**A.** Its blood glucose is “significantly reduce blood glucose”.

**Q.** “Y(aib)EGTFTSDLSIQLEKEAVRLFIEWLLAGGPSSGAPPPS-NH2 (Y[Aib]EGTFTSDLSIQLEKEAVRLFIEWLLAGGPSSGAPPPS-NH2; N-terminus assumed; SMILES CC[C@H](C)[C@H](NC(=O)[C@H](CO)NC(=O)[C@H](CC(C)C)NC(=O)[C@H](CC(=O)O)NC(=O)[C@H](CO)NC(=O)[C@@H](NC(=O)[C@H](Cc1ccccc1)NC(=O)[C@@H](NC(=O)CNC(=O)[C@H](CCC(=O)O)NC(=O)C(C)(C)NC(=O)[C@@H](N)Cc1ccc(O)cc1)[C@@H](C)O)[C@@H](C)O)C(=O)N[C@@H](CCC(N)=O)C(=O)N[C@@H](CC(C)C)C(=O)N[C@@H](CCC(=O)O)C(=O)N[C@@H](CCCCN)C(=O)N[C@@H](CCC(=O)O)C(=O)N[C@@H](C)C(=O)N[C@H](C(=O)N[C@@H](CCCNC(=N)N)C(=O)N[C@@H](CC(C)C)C(=O)N[C@@H](Cc1ccccc1)C(=O)N[C@H](C(=O)N[C@@H](CCC(=O)O)C(=O)N[C@@H](Cc1c[nH]c2ccccc12)C(=O)N[C@@H](CC(C)C)C(=O)N[C@@H](CC(C)C)C(=O)N[C@@H](C)C(=O)NCC(=O)NCC(=O)N1CCC[C@H]1C(=O)N[C@@H](CO)C(=O)N[C@@H](CO)C(=O)NCC(=O)N[C@@H](C)C(=O)N1CCC[C@H]1C(=O)N1CCC[C@H]1C(=O)N1CCC[C@H]1C(=O)N[C@@H](CO)C(N)=O)[C@@H](C)CC)C(C)C) [Compound 19]” was tested. Which blood glucose did it give?
**A.** The blood glucose was “significantly reduce blood glucose”.

**Q.** Which blood glucose does the source give for “Y(aib)EGTFTSDYSIYLDEEAVRLFVNWLIAGGPSSGAPPPS-NH2 (Y[Aib]EGTFTSDYSIYLDEEAVRLFVNWLIAGGPSSGAPPPS-NH2; N-terminus assumed; SMILES CC[C@H](C)[C@H](NC(=O)[C@H](CC(C)C)NC(=O)[C@H](Cc1c[nH]c2ccccc12)NC(=O)[C@H](CC(N)=O)NC(=O)[C@@H](NC(=O)[C@H](Cc1ccccc1)NC(=O)[C@H](CC(C)C)NC(=O)[C@H](CCCNC(=N)N)NC(=O)[C@@H](NC(=O)[C@H](C)NC(=O)[C@H](CCC(=O)O)NC(=O)[C@H](CCC(=O)O)NC(=O)[C@H](CC(=O)O)NC(=O)[C@H](CC(C)C)NC(=O)[C@H](Cc1ccc(O)cc1)NC(=O)[C@@H](NC(=O)[C@H](CO)NC(=O)[C@H](Cc1ccc(O)cc1)NC(=O)[C@H](CC(=O)O)NC(=O)[C@H](CO)NC(=O)[C@@H](NC(=O)[C@H](Cc1ccccc1)NC(=O)[C@@H](NC(=O)CNC(=O)[C@H](CCC(=O)O)NC(=O)C(C)(C)NC(=O)[C@@H](N)Cc1ccc(O)cc1)[C@@H](C)O)[C@@H](C)O)[C@@H](C)CC)C(C)C)C(C)C)C(=O)N[C@@H](C)C(=O)NCC(=O)NCC(=O)N1CCC[C@H]1C(=O)N[C@@H](CO)C(=O)N[C@@H](CO)C(=O)NCC(=O)N[C@@H](C)C(=O)N1CCC[C@H]1C(=O)N1CCC[C@H]1C(=O)N1CCC[C@H]1C(=O)N[C@@H](CO)C(N)=O) [Compound 1]” here?
**A.** The blood glucose was “significantly reduce blood glucose”.

**Q.** “Y(aib)EGTFTSDLSI(aib)LEKEAVRLFIEWLLAGGPSSGAPPPS-NH2 (YXEGTFTSDLSIXLEKEAVRLFIEWLLAGGPSSGAPPPS; Aib; C-terminal amide; MOD_RES (2)..(2) X=aminoisobutyric aicd; MOD_RES (13)..(13) X=aminoisobutyric aicd; MOD_RES (39)..(39) AMIDATION, C-termianl amidation) [Compound 36]” was tested. Which blood glucose did it give?
**A.** Its blood glucose is “significantly reduce blood glucose”.

**Q.** Which blood glucose does the source give for “Y(aib)EGTFTSDYSIYLEKEAVRLFVNWLIAGGPSSGAPPPS-NH2 (Y[Aib]EGTFTSDYSIYLEKEAVRLFVNWLIAGGPSSGAPPPS-NH2; N-terminus assumed; SMILES CC[C@H](C)[C@H](NC(=O)[C@H](CC(C)C)NC(=O)[C@H](Cc1c[nH]c2ccccc12)NC(=O)[C@H](CC(N)=O)NC(=O)[C@@H](NC(=O)[C@H](Cc1ccccc1)NC(=O)[C@H](CC(C)C)NC(=O)[C@H](CCCNC(=N)N)NC(=O)[C@@H](NC(=O)[C@H](C)NC(=O)[C@H](CCC(=O)O)NC(=O)[C@H](CCCCN)NC(=O)[C@H](CCC(=O)O)NC(=O)[C@H](CC(C)C)NC(=O)[C@H](Cc1ccc(O)cc1)NC(=O)[C@@H](NC(=O)[C@H](CO)NC(=O)[C@H](Cc1ccc(O)cc1)NC(=O)[C@H](CC(=O)O)NC(=O)[C@H](CO)NC(=O)[C@@H](NC(=O)[C@H](Cc1ccccc1)NC(=O)[C@@H](NC(=O)CNC(=O)[C@H](CCC(=O)O)NC(=O)C(C)(C)NC(=O)[C@@H](N)Cc1ccc(O)cc1)[C@@H](C)O)[C@@H](C)O)[C@@H](C)CC)C(C)C)C(C)C)C(=O)N[C@@H](C)C(=O)NCC(=O)NCC(=O)N1CCC[C@H]1C(=O)N[C@@H](CO)C(=O)N[C@@H](CO)C(=O)NCC(=O)N[C@@H](C)C(=O)N1CCC[C@H]1C(=O)N1CCC[C@H]1C(=O)N1CCC[C@H]1C(=O)N[C@@H](CO)C(N)=O) [Compound 8]” here?
**A.** The blood glucose was “significantly reduce blood glucose”.

Reference: patent US12612441B2, “Polypeptide and therapeutic uses thereof” (Vitalixir (Beijing) Co., Ltd, priority 2019, dated 2026)
